The subject of data set [1] is NCI-H226 human mesothelioma tumor cells. Kind of data set: NCI-H226 in vivo efficacy study. Particulars: H2d Rag2 female mice, subcutaneous NCI-H226 tumors, po qd for 29 days. As to the method: NCI-H226 In Vivo Efficacy Study
7-9-week-old H2d Rag2 female mice (own breeding, Taconic-Denmark) were inoculated subcutaneously with 5×10^6 NCI-H226 human mesothelioma tumor cells in the right flank. Tumor growth and body weight was measured twice weekly using caliper. Tumor volume was calculated using the formula TV=L×W×W/2.
When tumor volume reached approximately 75-150 mm^3, animals were randomized (Day 0) into treatment groups (n=9-10/group) and treated perorally (po) once daily (qd) for 29 days with either vehicle (20% hydroxypropyl β-cyclodextrin in 50 mM PBS pH 7.4) or Compound no. 2. Compound no. 2 was tested at dosing levels of 1, 3, 10, 30, and 100 mg/kg, respectively. Results are depicted in FIG. 1 (tumor growth over time for vehicle group and each dosage group) and FIG. 2 (final tumor volume of vehicle group and each dosage group).
Statistical analysis of tumor volumes between treatment groups was done using repeated measures analysis of covariance (RM-ANCOVA) in a linear mixed effects model followed by least-squares means pairwise comparisons.
The animal experiment was performed under regulation of the German animal welfare act and in accordance with the EU laboratory animal directive for the area of animal experiments.

Data set [2] relates to SW620 Yap KO cells. Kind of data set: Viability assay in SW620 Yap KO (Yap independent) cells, CyQuant. The format is cell-based. Particulars: Homo sapiens, SW-620, 96 h, class symbols. In a few lines: (§1)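 Seeded cells were dosed 24 h later in duplicate (10-point, 1:3 dilutions, top 30 μM final, 0.3% DMSO) and incubated 96 h at 37 °C. Viability was read with CyQUANT DNA dye after 1 h, fluorescence bottom read. NCI-H226 in RPMI 1640 medium; SW620 YAP/TAZ CRISPR knockout in DMEM/F-12 medium.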

In data set [3] the test system is YAP-TEAD interaction. Kind of data set: SK-HEP-1 reporter assay (8xTEAD responsive elements driving NanoLuc luciferase). Conditions: Homo sapiens, SK-HEP1, SK-HEP-1 reporter assay; class symbols. Format: cell-based. The essentials: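 SK-HEP-1 cells stably carrying 8×TEAD-driven NanoLuc treated in duplicate, 10-point dose from 30 μM final, 0.3% DMSO, 24 h at 37° C. Luminescence after NanoGlo lysis/substrate addition; IC50 calculated from dose response.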

The test system of data set [4] is NCI-H226 cells. Kind of data set: Viability assay in NCI-H226 (Yap-dependent) cells, CyQuant. Format: cell-based, human. Particulars: Homo sapiens, class symbols. The essentials:
as §1

Structures are written as SMILES.

`CCOc1ccc(-n2c3ccc(C(=O)O)cc3c3cn(C)nc32)cc1` [Example 15, 8-(4-Ethoxyphenyl)-2-methyl-2H,8H-pyrazolo[3,4-b]indole-5-carboxylic acid] came in with a melting point of 179 to 181 °C.

Compound `C=CC(=O)NCc1ccc2c(c1)c1cn(C)nc1n2-c1ccc(C(F)(F)F)cc1` [Example 21, N-([2-methyl-8-[4-(trifluoromethyl)phenyl]pyrazolo [3,4-b]indol-5-yl]methyl)prop-2-enamide] had a melting point of 185 to 187 °C.

As to `Cn1cc2c3cc(C(=O)O)ccc3n(-c3ccc(C(F)(F)F)cc3)c2n1` [Example 2, 2-methyl-8-[4-(trifluoromethyl)phenyl]-2H,8H-pyrazolo[3,4-b]indole-5-carboxylic acid], in data set [1], the “dosing levels showing maximal inhibition of tumor growth” value is reported as over 10 mg/kg. Also, in data set [1] (all tested dosing levels 1, 3, 10, 30, 100 mg/kg, p-value <0.001), the “tumor growth inhibition compared to vehicle treated group” value was “Significant tumor growth inhibition”.

With `Cn1cc2c3cc(C(=O)NC4CC4)ccc3n(-c3ccc(C(F)(F)F)nc3)c2n1` [Example 27, N-cyclopropyl-2-methyl-8-[6-(trifluoromethyl)pyridin-3-yl]-2H,8H-pyrazolo[3,4-b]indole-5-carboxamide], the melting point is 300 °C.

With `Cn1cc2c(n1)c1cc(C#N)ccc1n2-c1ccc(C(F)(F)F)cc1` [Example 19, 2-methyl-4-[4-(trifluoromethyl)phenyl]pyrazolo [4,3-b]indole-7-carbonitrile], the melting point was in the range of 208 to 210 °C.

For the compound `Cn1cc2c3cc(CNC(=O)CCl)ccc3n(-c3ccc(C(F)(F)F)cc3)c2n1` [Example 24, 2-chloro-N-([2-methyl-8-[4-(trifluoromethyl)phenyl]pyrazolo[3,4-b]indol-5-yl]methyl)acetamide], the melting point fell in the range of 221 to 222 °C. The compound further showed an IC50 in data set [2] of 1000 to 10000 nM. For the same compound, in data set [3], the IC50 lay in the range of 100 to 10000 nM. The compound further yielded an IC50 in data set [4] (96 h) of 100 to 1000 nM.

In turn, `COC(=O)c1ccc2c(c1)c1nn(C)cc1n2-c1ccc(C(F)(F)F)cc1` [Example 16, Methyl 2-methyl-4-[4-(trifluoromethyl)phenyl]pyrazolo[4,3-b]indole-7-carboxylate] had a melting point of 111 to 112 °C.

Compound `C[C@@H](CO)NS(=O)(=O)c1ccc2c(c1)c1nnn(C)c1n2-c1ccc(C(F)(F)F)cc1` [Example 38, N-[(2S)-1-hydroxypropan-2-yl]-3-methyl-4-[4-(trifluoromethyl)phenyl]-3H,4H-[1,2,3]triazolo[4,5-b]indole-7-sulfonamide] came in with a melting point of 232 to 234 °C. For the same compound, the IC50 in data set [2] was over 30000 nM. In data set [3], this compound yielded an IC50 of 10 to 100 nM. This compound also registered an IC50 in data set [4] (NCI-H226, 96 h) of over 10000 nM.

The record behind these values is patent US20240270748A1 (Merck Patent GmbH, priority 2021, published 2024).
